Experiments:
[1] = molecular target: T1, Mu-type opioid receptor (Cavia porcellus, UniProt P97266); test: Binding affinity was determined against Mu opioid receptor using [3H]-Naltrexone as radioligand
[2] = molecular target: Mu-type opioid receptor (Rattus norvegicus, UniProt P33535); test: Binding affinity was determined as ability to displace [3H]DAMGO radioligand from Mu opioid receptor
[3] = molecular target: T1, Mu-type opioid receptor; test: Compound was tested for the inhibition of [35S]GTP-gamma-S, binding in Guinea pig Caudate stimulated by the opioid receptor agonist Mu-DAMGO; type: functional
[4] = molecular target: T2, Kappa-type opioid receptor (Cavia porcellus, UniProt P41144); test: Compound was tested for the inhibition of [35S]GTP-gamma-S, binding Opioid receptor kappa 1; type: functional
T2 sequence (P41144 whole entry): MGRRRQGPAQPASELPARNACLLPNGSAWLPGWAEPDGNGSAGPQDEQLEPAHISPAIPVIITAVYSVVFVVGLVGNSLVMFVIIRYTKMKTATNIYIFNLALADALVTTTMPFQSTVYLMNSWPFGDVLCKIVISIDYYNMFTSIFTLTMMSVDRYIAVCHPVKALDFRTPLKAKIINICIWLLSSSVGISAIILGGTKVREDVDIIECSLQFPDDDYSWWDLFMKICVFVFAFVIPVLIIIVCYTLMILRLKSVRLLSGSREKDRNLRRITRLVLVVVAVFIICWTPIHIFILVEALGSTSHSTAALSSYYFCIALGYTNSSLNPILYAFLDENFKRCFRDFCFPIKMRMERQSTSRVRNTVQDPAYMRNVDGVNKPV

[5] = molecular target: Delta-type opioid receptor (Rattus norvegicus, UniProt P33533); test: Binding affinity was determined as ability to displace [3H]DADLE radioligand from Opioid receptor delta 1
Delta-type opioid receptor, sequence (P33533 whole entry): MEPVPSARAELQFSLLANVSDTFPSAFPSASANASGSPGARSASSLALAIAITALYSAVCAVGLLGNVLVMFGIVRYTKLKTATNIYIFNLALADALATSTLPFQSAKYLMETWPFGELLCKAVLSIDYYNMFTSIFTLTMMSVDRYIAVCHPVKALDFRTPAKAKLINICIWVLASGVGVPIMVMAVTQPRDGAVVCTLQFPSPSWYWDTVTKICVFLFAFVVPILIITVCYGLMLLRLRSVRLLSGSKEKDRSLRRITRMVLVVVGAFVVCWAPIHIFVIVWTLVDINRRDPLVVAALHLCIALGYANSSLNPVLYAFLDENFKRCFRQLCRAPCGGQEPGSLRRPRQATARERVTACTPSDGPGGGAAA

[6] = molecular target: T2, Kappa-type opioid receptor; test: Binding affinity was determined as ability to displace [3H]-U-69, radioligand from Opioid receptor kappa 1
[7] = molecular target: T2, Kappa-type opioid receptor; test: Compound was tested for the inhibition of [35S]GTP-gamma-S, binding to Opioid receptor kappa 1; type: functional

T1 sequence (P97266 whole entry): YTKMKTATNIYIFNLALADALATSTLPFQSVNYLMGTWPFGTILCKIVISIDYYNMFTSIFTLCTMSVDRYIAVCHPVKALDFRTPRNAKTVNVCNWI
Mu-type opioid receptor (Rattus norvegicus, UniProt P33535), sequence (P33535 whole entry): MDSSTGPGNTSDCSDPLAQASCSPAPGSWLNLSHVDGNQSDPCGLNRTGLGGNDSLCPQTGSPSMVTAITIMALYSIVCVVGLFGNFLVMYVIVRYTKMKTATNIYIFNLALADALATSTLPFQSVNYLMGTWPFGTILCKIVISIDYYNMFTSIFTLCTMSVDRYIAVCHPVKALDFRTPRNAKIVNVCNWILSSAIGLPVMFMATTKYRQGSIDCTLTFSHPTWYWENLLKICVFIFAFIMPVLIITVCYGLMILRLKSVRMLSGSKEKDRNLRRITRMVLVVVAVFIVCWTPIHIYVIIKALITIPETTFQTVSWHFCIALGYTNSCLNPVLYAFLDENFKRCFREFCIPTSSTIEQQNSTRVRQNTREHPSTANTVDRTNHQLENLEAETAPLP

`C[C@H]1CN(C)CC[C@@]1(C)c1cccc(O)c1` was tested, and the Ki [1] was 80 nM.
`C[C@]12Cc3ccccc3C[C@@]1(c1cccc(O)c1)CCN(CCc1ccccc1)C2` was tested, and the Ki [2] was 11.2 nM, the Ki [3] was 10 nM and the Ki [4] was 6.61 nM. It also gave a Ki [5] of 1270 nM and a Ki [6] of 9.8 nM.
With `CN1CC[C@]2(c3cccc(O)c3)Cc3ccccc3C[C@]2(C)C1` the Ki [7] was 52.6 nM, the Ki [2] was 297 nM and the Ki [3] was 119 nM. For the same compound, the Ki [5] was > 5710 nM and the Ki [6] was 166 nM.
